From patent publication US20210137886A1, “INHIBITORS OF METALLO-BETA-LACTAMASES” (Oxford University Innovation Limited, priority 2017, published 2021)

How the values were obtained:
[1] = biological target: VIM-2 (Veronese metallo-β-lactamase-2) (Escherichia coli, UniProt Q5U7L7); assay: Metallo-β-lactamase enzyme inhibition, standard assay protocol
[2] = system: E. coli VIM-1; assay: Meropenem MIC, CLSI broth or agar microdilution, strain entry 3; format: cell-based; conditions: strain entry 3, E. coli VIM-1
From the text: (§1) In each case DMSO was used to dissolve inhibitors.

[3] = system: Pseudomonas aeruginosa VIM-2; assay: Meropenem MIC, CLSI broth or agar microdilution, strain entry 5; format: cell-based; conditions: strain entry 5, Pseudomonas aeruginosa VIM-2
From the text: as §1

[4] = system: Klebsiella pneumoniae NDM-1; assay: Meropenem MIC, CLSI broth or agar microdilution, strain entry 6; format: cell-based; conditions: strain entry 6, Klebsiella pneumoniae NDM-1
From the text: as §1

[5] = biological target: NDM-1 (New Delhi metallo-β-lactamase-1) (Klebsiella pneumoniae, UniProt C7C422); assay: Metallo-β-lactamase enzyme inhibition, standard assay protocol
[6] = system: Klebsiella pneumoniae IMP-4; assay: Meropenem MIC, CLSI broth or agar microdilution, strain entry 1; format: cell-based
[7] = system: Klebsiella pneumoniae VIM-1; assay: Meropenem MIC, CLSI broth or agar microdilution, strain entry 4; format: cell-based
[8] = system: E. coli IMP-4; assay: Meropenem MIC, CLSI broth or agar microdilution, strain entry 2; format: cell-based
[9] = system: Klebsiella pneumoniae NDM-1 + DHA + CTX − M-15; assay: Meropenem MIC, CLSI broth or agar microdilution, strain entry 7; format: cell-based
[10] = biological target: VIM-1 (Veronese metallo-β-lactamase-1) (Pseudomonas aeruginosa, UniProt A0A0F7KYQ8); assay: Metallo-β-lactamase enzyme inhibition, standard assay protocol
[11] = biological target: IMP-1 (Imipenemase-1) (Serratia marcescens, UniProt P52699); assay: as above
Sequence of IMP-1 (Imipenemase-1) (P52699 19-246, looked up, species assumed): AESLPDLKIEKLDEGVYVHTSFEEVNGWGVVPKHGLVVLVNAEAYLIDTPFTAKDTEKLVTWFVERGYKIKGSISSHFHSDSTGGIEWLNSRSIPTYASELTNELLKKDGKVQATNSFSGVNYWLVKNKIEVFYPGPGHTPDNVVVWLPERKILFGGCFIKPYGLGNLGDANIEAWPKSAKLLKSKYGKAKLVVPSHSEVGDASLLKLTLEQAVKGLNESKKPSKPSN

Sequence of NDM-1 (New Delhi metallo-β-lactamase-1) (C7C422 29-270, looked up, species assumed): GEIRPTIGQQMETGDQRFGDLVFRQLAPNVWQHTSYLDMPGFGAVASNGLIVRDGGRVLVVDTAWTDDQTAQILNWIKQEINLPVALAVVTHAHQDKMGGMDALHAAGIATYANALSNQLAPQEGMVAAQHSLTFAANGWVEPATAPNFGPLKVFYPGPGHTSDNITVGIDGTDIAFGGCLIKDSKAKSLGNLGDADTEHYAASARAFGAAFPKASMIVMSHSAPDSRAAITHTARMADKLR

| Structure (SMILES) | IC50 [1] [nM] | Change in MIC value of meropenem ([2]; 2 mg/L inhibitor) [log2 difference] | Change in MIC value of meropenem ([2]; 4 mg/L inhibitor) [log2 difference] | Change in MIC value of meropenem ([2]; 8 mg/L inhibitor) [log2 difference] | Change in MIC value of meropenem ([3]; 2 mg/L inhibitor) [log2 difference] | Change in MIC value of meropenem ([3]; 4 mg/L inhibitor) [log2 difference] | Change in MIC value of meropenem ([3]; 8 mg/L inhibitor) [log2 difference] | Change in MIC value of meropenem ([4]; 2 mg/L inhibitor) [log2 difference] | Change in MIC value of meropenem ([4]; 4 mg/L inhibitor) [log2 difference] | Change in MIC value of meropenem ([4]; 8 mg/L inhibitor) [log2 difference] | IC50 [5] [nM] | Change in MIC value of meropenem ([6]; 2 mg/L inhibitor) [log2 difference] | Change in MIC value of meropenem ([6]; 4 mg/L inhibitor) [log2 difference] | Change in MIC value of meropenem ([6]; 8 mg/L inhibitor) [log2 difference] | Change in MIC value of meropenem ([7]; 2 mg/L inhibitor) [log2 difference] | Change in MIC value of meropenem ([7]; 4 mg/L inhibitor) [log2 difference] | Change in MIC value of meropenem ([7]; 8 mg/L inhibitor) [log2 difference] | Change in MIC value of meropenem ([8]; 2 mg/L inhibitor) [log2 difference] | Change in MIC value of meropenem ([8]; 4 mg/L inhibitor) [log2 difference] | Change in MIC value of meropenem ([8]; 8 mg/L inhibitor) [log2 difference] | other results |
| --- | --- | --- | --- | --- | --- | --- | --- | --- | --- | --- | --- | --- | --- | --- | --- | --- | --- | --- | --- | --- | --- |
| CC(C)c1csc2c(-c3ccc(F)cc3)c(C(=O)O)[nH]c12 [Example 12, 3-isopropyl-6-(4-fluorophenyl)-4H-thieno-[3,2-b]pyrrole-5-carboxylic acid] | 39.8 | −1 | −1 | −1 | 0 | 0 | 0 | −1 | −1 | −2 | 50.1 | −2 | −2 | −2 | −2 | −2 | −2 | −2 | −2 | −3 | Change in MIC value of meropenem ([9]; 2 mg/L inhibitor): −1 log2 difference; Change in MIC value of meropenem ([9]; 4 mg/L inhibitor): −2 log2 difference; Change in MIC value of meropenem ([9]; 8 mg/L inhibitor): −3 log2 difference; IC50 [10]: 631 nM; IC50 [11]: 50.1 nM |
| O=C(O)c1[nH]c2c(C3CC3)csc2c1-c1ccc(F)cc1 [Example 13, 3-cyclopropyl-6-(4-fluorophenyl)-4H-thieno-[3,2-b]pyrrole-5-carboxylic acid] | 79.4 | −1 | −1 | −1 | 0 | 0 | 0 | −1 | −1 | −2 | 50.1 | −2 | −2 | −2 | −2 | −2 | −2 | −2 | −2 | −2 | Change in MIC value of meropenem ([9]; 2 mg/L inhibitor): −2 log2 difference; Change in MIC value of meropenem ([9]; 4 mg/L inhibitor): −2 log2 difference; Change in MIC value of meropenem ([9]; 8 mg/L inhibitor): −2 log2 difference; IC50 [10]: 1580 nM; IC50 [11]: 398 nM |
| NS(=O)(=O)c1ccc(-c2c(C(=O)O)[nH]c3c(Br)csc23)cc1 [Example 14, 3-bromo-6-(4-sulfamoylphenyl)-4H-thieno-[3,2-b]pyrrole-5-carboxylic acid] | 158 | −1 | −1 | −1 | 0 | 0 | 0 | −1 | −1 | −2 | 63.1 | −1 | −1 | −1 | −1 | −1 | −1 | −1 | −1 | −1 | Change in MIC value of meropenem ([9]; 2 mg/L inhibitor): −2 log2 difference; Change in MIC value of meropenem ([9]; 4 mg/L inhibitor): −2 log2 difference; Change in MIC value of meropenem ([9]; 8 mg/L inhibitor): −3 log2 difference; IC50 [10]: 3160 nM; IC50 [11]: 1260 nM |
